According to patent publication US12109266B2, “Modulating gabarap to modulate immunogenic cell death” (Dana-Farber Cancer Institute, Inc., priority 2020, dated 2024):
“Also recorded” adds a separate entry of the source.

Legend:
5TGM1 tumors = experiment: In vivo tumor growth analysis; design: species or system mouse
Protocol: (§1) 6-week old female immunodeficient NOD.CB17-Prkdcscid/NCrCrl (NOD/SCID) mice (Charles River) and immunocompetent C57BL/KaLwRijHsd (Envigo) mice were housed in an animal facility at the Dana-Farber Cancer Institute (DFCI). All experiments were performed after approval by the Animal Ethics Committee of the DFCI and performed using institutional guidelines.
To assess the effect of BTZ in the absence of an immune system, NOD/SCID mice were subcutaneously injected with 1×10^6 5TGM1 WT cells in a 1:1 ratio with Matrigel® (Corning); to assess BTZ in an immunocompetent host, C57BL/KaLwRijHsd mice were injected with 1×10^6 5TGM1 either WT or calrKO in the same ratio with Matrigel®. When tumor became measurable, mice (5/group) were randomized to receive either PBS or BTZ administered intra peritoneally (i.p.) 0.5 mg/kg twice/week for 2 weeks. Tumor sizes were measured and mice were sacrificed when tumors reached 2 cm in diameter or ulceration or major compromise in quality of life. A parallel experiment was performed to allow for tumor harvesting after two injections i.p. of BTZ for RNA-seq analysis, as detailed below.
as §1, with “(NOD/SCID)” for “(NOD/SCID) mice”, “in the” for “in an”, “at DFCI.” for “at the Dana-Farber Cancer Institute (DFCI).”
NOD/SCID and C57BL/KaLwRijHsd mice were subcutaneously (sc) injected with 1×10^6 5TGM1 either WT or Calr^KO cells in PBS. When tumor became measurable, mice were randomized to receive either PBS or BTZ administered intra peritoneally (i.p.) 0.5 mg/kg twice/week for 2 weeks. Tumor sizes were measured as previously described (46), and mice were sacrificed when tumors reached 2 cm in diameter or ulceration or major compromise in quality of life. A parallel experiment was performed to allow for tumor harvesting after two injections ip of BTZ for RNA-seq analysis, as detailed below. For BTZ and STING agonist combination studies, C57BL/KaLwRijHsd (n=5/group) and SCID/NOD (n=6/group) mice bearing 5TGM1 WT and C57BL/KaLwRijHsd mice (n=5/group) bearing 5TGM1 Sting^KO tumors were randomized to receive: PBS, BTZ (0.375 mg/kg twice a week for 2 weeks, i.p.), ADU-S100 (100 μg) administered in the peritumoral area (day 1 and 2), or a combination. Tumor sizes were measured as described above. A parallel experiment in C57BL/KaLwRijHsd mice was performed to allow for tumor harvesting after one administration of either BTZ or ADU-S100. Tumors were fixed in 10% formalin for 24 h, and then maintained in 70% ethanol prior to paraffin embedding and processing for IHC to detect CD3 (#nb600 Ab, Novus Bio).

[1] = system: AMO1 and NCI-H929 MM cells; experiment: Micronuclei assay (flow cytometry); assay type: cell-based, human; details: AMO1 (0-7.5 nM) and NCI-H929 (0-5 nM), 16 h
Protocol: Cells were analyzed for micronuclei formation using a flow cytometry-based Micronucleus Assay (MicroFlow kit), according to manufacturer's protocol. Briefly, nonviable cells were removed by Ficoll gradient centrifugation. Viable cells were then stained with photoactivated Nucleic Acid Dye A (ethidium monoazide) that crosses the compromised outer membrane of apoptotic and necrotic cells and stains them red. Cells were then washed twice and lysed with a detergent containing buffer to break open cytoplasmic membranes and release nuclei and micronuclei. Nucleic Acid Dye B (SYTOX green) is then added to label DNA from both nuclei and micronuclei. Flow cytometry analysis was used to distinguish DNA from dead (dual stained with Dye A and B) and live (single stained with Dye B) cells.

[2] = system: AMO1, H929 and KMS11 MM cells; experiment: Phagocytosis assay of MM cells by monocyte-derived DCs; assay type: cell-based, human
Protocol: Mo-DCs were generated from CD14+ peripheral blood monocytes were positively selected using magnetic beads (Miltenyi Biotec) and cultured for 6 days in mo-DC differentiation medium containing GM-CSF and IL-4 (130-094-812; Miltenyi Biotec) to generate Mo-DCs. AMO1, KMS11 and H929 cells lines, as well as patient MM cells, were stained with CellTrace™ Far Red (ThermoFisher Scientific), cultured with or without BTZ (for 16 h), and then incubated in 48-well plates for 4 h at 1:1 ratio with CellTrace™ CFSE stained Mo-DCs. Cells were then collected, and phagocytosis analysis was performed by flow cytometry and confocal microscopy. Analagous phagocytosis experiments was performed using 5TGM1 murine MM and immature murine DC line JAWSII.
Collected cells were analyzed using the BD LRSFortessa™ X-20 flow cytometer. Mo-DCs that engulfed MM cells were CFSE and FAR-RED double positive. Fold increase in percentage of double positive DCs after co-culture with BTZ treated vs untreated MM cells was compared.
Mo-DCs were generated from CD14+ peripheral blood monocytes from healthy donors, positively selected using magnetic beads (Miltenyi Biotec), cultured for 6 days in mo-DC differentiation medium containing GM-CSF and IL-4 (130-094-812; Miltenyi Biotec). AMO1 and NCI-H929 cells lines, as well as patient MM cells, were stained with CellTrace™ Far Red (ThermoFisher Scientific), cultured with or without BTZ for 16 h, and then incubated in 48-well plates for 4 h at 1:1 ratio with CellTrace™ CFSE stained Mo-DCs. Cells were then collected, and phagocytosis analysis was performed by flow cytometry and confocal microscopy. Analagous phagocytosis experiments were performed using 5TGM1 murine multiple myeloma and JAWSII cell line that was used as source of immature murine DCs.
Flow cytometry-based assay: Collected cells were analyzed using the BD LRSFortessa X-20 flow cytometer. Mo-DCs that engulfed MM cells were CFSE and FAR-RED double positive. Fold increase in percentage of double positive DCs after co-culture with BTZ treated vs untreated MM cells was compared.

Structure (SMILES): CC(C)C[C@H](NC(=O)[C@H](Cc1ccccc1)NC(=O)c1cnccn1)B(O)O [BTZ, bortezomib]
- tumor growth (5TGM1 tumors; 5TGM1 Calr^KO tumors in immunocompetent mice, BTZ 0.5 mg/kg twice/week for 2 weeks): antagonized in CALR^KO tumors; also recorded: abrogated in mice bearing CRT^KO tumors; also recorded: abrogated in immunocompetent mice bearing 5TGM1 Calr^KO tumors
- anti-tumor activity (5TGM1 tumors; 5TGM1 Sting^KO tumors in immunocompetent mice): significantly abrogated against tumors lacking Sting; also recorded: significantly reduced in vivo against multiple myeloma tumors lacking Sting
- tumor growth (5TGM1 tumors; 5TGM1 WT in immunocompetent C57BL/KaLwRij mice, BTZ 0.5 mg/kg twice/week for 2 weeks i.p.): induces tumor regression in the presence of the immune system; also recorded: more potent 5TGM1 tumor cell shrinkage in immunocompetent hosts; also recorded: inhibited growth of 5TGM1 WT cells engrafted in immunocompetent (C57BL/KaLwRij) mice (FIG. 19A) to a greater extent than when these cells were engrafted in immunodeficient hosts; also recorded: induces ICD in a syngeneic murine model of MM
- anti-tumor effects (5TGM1 tumors; 5TGM1 WT in immunodeficient NOD/SCID mice, BTZ 0.375 mg/kg, ADU-S100 100 ug day 1 and 2): abrogated the anti-tumor effects
- tumor growth (5TGM1 tumors; 5TGM1 WT in immunodeficient SCID/NOD mice, BTZ 0.5 mg/kg twice/week for 2 weeks i.p.): can efficiently delay tumor growth in immunodeficient mice
- micronuclei (DNA content in the cytoplasm) [1]: dose-dependent increase of DNA content in the cytoplasm
- phagocytosis of BTZ-treated MM cells by DCs ([2]; AMO1, NCI-H929 WT, BTZ 16 h, then 4 h co-culture): induces functional maturation of dendritic cells (DCs) in vitro; also recorded: enhanced uptake of BTZ-treated MM cells; also recorded: engulfed by monocyte-derived DCs after 4 h of co-culture
- phagocytosis of BTZ-treated MM cells by DCs ([2]; AMO1 GABARAP^KO): did not stimulate phagocytosis by DCs; also recorded: GABARAP^KO abrogates phagocytosis by DCs
- induction of ICD ([2]; GABARAP^KO in 2 ICD-sensitive cell lines (AMO1, H929)): abrogated the induction of ICD by BTZ
- induction of ICD ([2]; KMS11 / GABARAP-null cells): resistant to induction of ICD by BTZ
- induction of ICD ([2]; KMS11 / GABARAP-null cells, listed as Bortezomib): does not induce ICD in GABARAP-null cells
- functional maturation of co-cultured DCs (phagocytosis assay) ([2]; KMS11 cells (monoallelic deletion of GABARAP)): did not lead to an increase of CRT exposure or functional maturation of co-cultured DCs
